From US20200282009A1, “METHODS OF TREATING DISEASES ASSOCIATED WITH VASCULAR SMOOTH MUSCLE CELL PROLIFERATION” (BioLineRx Ltd., priority 2017, published 2020)
[ ]: non-standard residue; d: D form. The star is where a group is joined. Benzoyl(4-F) = O=C(c1ccc(F)cc1)*; Cit = NC(=O)NCCC[C@H](N)C(=O)O

How the values were obtained:
[1] = test system: SK-N-BE(2) cells; assay: Cell survival assay (PI staining, FACS); format: cell-based, human; settings: BL-8040 0-20 μM or AMD3100 10 and 20 μM, 24 hours
Description: (§1) A total of 1×10^5 cells/mL were cultured in 24-well plates with […] RPMI 1640 medium supplemented with 10% FCS. 24 hours later, the medium was changed to RPMI 1640 supplemented with either 1% FCS, with BL-8040 or AMD3100 or ABT199. Then 24 hours later, the cells were harvested, washed, and stained with PI (Sigma). The number of live cells was counted and analyzed using FACS analysis.

[2] = test system: Shy-SY5Y cells; assay: Cell survival assay (PI staining, FACS); format: cell-based, human; settings: BL-8040 0-20 μM or AMD3100 10 and 20 μM, 24 hours
Description: as §1

[3] = test system: SK-N-BE(2) cells; assay: Soft agar colony assay; format: cell-based, human; settings: BL-8040 20 μM or anti-CXCR4 1 μg/ml, 14 days
Description: (§2) An agar base layer was prepared as follows: 45 mL RPMI plus 12% FCS was mixed with 15 mL RPMI 32 plus 12% FCS and 15 mL 2.5% agar in double-distilled water. The tumor cells were suspended in RPMI plus 10% FCS. Cell suspension was mixed in a ratio of 1:3 with the agar base solution. This mixture was then plated on top of a preformed solid agar base. CXCL12 (100 ng/mL) or BL-8040 (20 μM) or anti-CXCR4 (1 μg/ml) were added to the mixture. Fourteen days later, the number of colonies was counted in 10 different fields.

[4] = test system: Shy-SY5Y cells; assay: Soft agar colony assay; format: cell-based, human; settings: BL-8040 20 μM or anti-CXCR4 1 μg/ml, 14 days
Description: as §2

[5] = test system: BCL-2, cycD1, pERK in SK-N-BE(2) cells; assay: Western blot analysis of treated cells; format: cell-based, human; settings: 20 μM, 24 hours
Description: SK-N-BE(2) cells were seeded into a 12-well plate at 2×10^5/1 ml of medium per well. The cells were incubated for 48 hours and supernatants were collected. For whole cells: tumor samples and cells were lysed by the addition of lysis buffer containing 50 mM Tris-HCl PH 7.6, 150 mM NaCl, 5 mM EDTA pH 8, 0.5% NP40 and protease inhibitor cocktail (Roche Diagnostics). Lysate was incubated with buffer for 15-20 minutes and then centrifuges at 14,000 rpm, 15 min, at 4° C. Protein amounts were determined by Bradford assay (Bio-Rad).
Protein extracts were equally loaded onto 10% SDS-polyacrylamide gel, electrophorized and transferred onto a polyvinylidenedifluoride (PVDF) membrane (Bio-Rad Laboratories). Then, membranes were blocked and incubated with primary specific antibody O.N. at 4° C. For BCL-2 mouse monoclonal (Abcam). For cycD1 rabbit monoclonal (Thermo). For pERK1/2 rabbit monoclonal (Cell signaling). For β-Actin mouse monoclonal (MP biomedicals). After the washing procedure (3 times, 10 min in washing solution), the membrane was incubated with a secondary immunopure HRP-conjugated antibody, anti-mouse or anti rabbit (Envision; Dako) (1/10,000), washed (5 times, 6 min) and detected with the EZ-ECL kit (Biological Industries). Photon emission was identified by ChemiDoc MP imaging system (Bio-Rad). Intensities of protein bands were quantified by computerized densitometry using Image lab software (Bio-Rad).

[6] = test system: CXCR4-expressing malignancies; settings: multiple myeloma, AML, CML, non-small cell lung cancer, metastatic breast cancer; cited from earlier work
[7] = test system: SK-N-BE(2) orthotopic xenograft tumors; assay: In-vivo orthotopic NB model (tumor growth, weight, survival); parameters: species or system NSG mice
Description: (§3) Human SK-N-BE(2) cells were orthotopically injected into the left adrenal gland of 6-8 weeks old NSG mice. A 27-gauge needle was introduced through the left adrenal fat pad and 5×10∧5 cells/20 μl PBS were inoculated to the adrenal gland. NSG mice were maintained under defined flora conditions at the Hebrew University Pathogen-Free Animal Facility. Tumor growth and volume were monitored bi-weekly by using T2-weighted MRI until tumors reached the ethical limit volume and mice were randomized to drug-treated or control mice. Mice in the treated group were subjected to 2 treatment protocols. In the first treatment protocol BL-8040 (400 μg) was injected daily, starting three days following inoculation, and was continued for 35 days. In the second treatment protocol mice were monitored for 21 days. As of day 7, mice were treated with a daily injection of BL-8040 (400 μg) for 14 consecutive days.
Magnetic resonance imaging (MRI) scans were performed on a horizontal 4.7T Biospec spectrometer (Bruker Medical) with a 3.5-cm birdcage coil. Mice were anesthetized with Isoflurane (Nicholas Piramal, India; 2% in a mixture of 30:70 O2:N2O). Tumor volume was assessed bi-weekly using T2-weighted (T2W) fast spin echo images (repetition time=2,000 ms; echo time=37 ms; in plane resolution=117 μm; slice thickness-1 mm). Tumor volume was manually assessed using Analyze-7.0 (BIR). For each subject, an exponential growth curve was fitted to the tumor volume data points (Matlab software).
Data are presented as means±SD or ±SE. Statistical comparison of means was performed by a two-tailed unpaired Student's t test. Differences with a P<0.05 were determined as statistically significant. Statistical analysis of NB tumor mice survival following early treatment was performed using the Mantel-cox test.

[8] = test system: miR-15a, DLEU2; assay: Gene expression array of xenograft tumors; format: in vivo, NSG mice; settings: treated vs un-treated tumors
Description: RNA was isolated from tumors and subjected to gene expression profiling using GeneChip human Gene 1.0 ST Array (Affymetrix). The gene expression values were extracted using the Partek Genomics Suite 6.6 software and, after thresholding and filtering procedures, were submitted to fold change and cluster analyses (Gene Expression Omnibus [GEO] GSE94426).
as §3

[9] = test system: SK-N-BE(2)-CXCR4 cells; assay: Cell survival assay (PI staining, FACS); format: cell-based, human; settings: SK-N-BE(2)-CXCR4 vs native cell line; 0, 10 and 20 μM, 24 hours
Description: as §1
In order to stably overexpress CXCR4, SK-N-BE(2) cells were transduced with the lentiviral bicistronic vector harboring a CXCR4 expression cassette. This was done using a three-plasmid system: pHR′-CMVCXCR4-IRES-GFP-WPRE; envelope coding plasmid VSV-G and a packaging construct CMVDR8.91 according to previously published protocol (23). For transduction of SK-N-BE(2) cells, 1 ml of viral supernatant was used, which is equivalent to an m.o.i. of ˜9.

[10] = target: CXCR4 receptor (Homo sapiens, UniProt P61073); settings: Peled et al. 2012; cited from earlier work
Chain of CXCR4 receptor (P61073 whole entry): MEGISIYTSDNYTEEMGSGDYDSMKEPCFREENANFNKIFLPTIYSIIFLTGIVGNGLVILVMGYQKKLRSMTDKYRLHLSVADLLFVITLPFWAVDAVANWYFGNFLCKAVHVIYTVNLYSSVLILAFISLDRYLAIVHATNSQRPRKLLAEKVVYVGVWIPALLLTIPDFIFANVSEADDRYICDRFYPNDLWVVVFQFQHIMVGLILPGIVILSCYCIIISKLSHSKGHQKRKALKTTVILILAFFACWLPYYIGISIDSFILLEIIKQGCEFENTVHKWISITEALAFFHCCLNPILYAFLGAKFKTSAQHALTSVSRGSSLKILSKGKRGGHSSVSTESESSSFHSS

In the case of “4F-benzoyl-Arg-Arg-Nal-Cys-Tyr-Cit-Lys-DLys-Pro-Tyr-Arg-Cit-Cys-Arg-NH2 ({Benzoyl(4-F)}-RR[Nal]CY[Cit]K[dK]PYR[Cit]CR-NH2; not fully specified; printed as 4F-benzoyl-Arg-Arg-Nal-Cys-Tyr-Cit-Lys-DLys-Pro-Tyr-Arg-Cit-Cys-Arg-NH2; cysteine pairing not given here) [BL-8040]”, the “cell viability (viable cells counted)” value [1] is reported as “decreased viability”, the “cell viability (viable cells counted)” value [2] is reported as “decreased viability” and the colony formation [3] is reported as “reduces colony formation”. For the same substance, the colony formation [4] was “reduces colony formation”, the “BCL-2 protein (western blot)” value [5] was “reduction” and the “ERK phosphorylation (western blot)” value [5] was “decreased ERK phosphorylation”. For the same substance, the “cycD1 protein (western blot)” value [5] was “reduction”, the “effects on CXCR4-expressing malignancies” value [6] was “toxic effects” and the “reduction in tumor weight” value ([7]; 400 μg s.c. daily for 14 days from day 7, harvested day 21) was 3 fold. The “survival of animals, average” value ([7]; 400 μg s.c. daily for 35 days from day 3, controls 35 days) was 61 days, the “tumor growth (tumor volume, MRI)” value ([7]; 400 μg s.c. daily for 35 days from day 3, exponential growth after discontinuation) was “tumor growth attenuation” and the “expression of miR-15a and its parent gene DLEU2 (gene chip array)” value [8] was “increased expression”. For the same substance, the “sensitivity to BL-8040 treatment in-vitro (viability)” value [9] was “increased sensitivity”, the “affinity of binding to the CXCR4 receptor” value [10] was “high affinity” and the receptor occupancy [10] was “long receptor occupancy”.
